Measured values from patent US12404283B2, “c-MYC mRNA translation modulators and uses thereof in the treatment of cancer” (Anima Biotech Inc., priority 2022, dated 2025).

System: c-Myc
Assay: c-Myc immunofluorescence assay
Format: cell-based, human
Details: A549 cells, 24 hours treatment, anti-c-Myc immunofluorescence
Procedure, shortened: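 A549 cells grown 48 h, exposed 24 h to rising compound concentrations, then fixed, permeabilised and stained for c-Myc plus DAPI. Nuclear-segmented c-Myc fluorescence quantified by high-content imaging at 20×; EC50 from logistic dose–response fits.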

SMILES | Myc Efficacy (−LogEC50)
CCN(CC)CCCNC(=O)c1ccc2c(c1)sc1nc(-c3ccc(CN)cc3F)cn12 [compound 298, 2-(4-(aminomethyl)-2-fluorophenyl)-N-(3-(diethylamino)propyl)benzo [d]imidazo[2,1-b]thiazole-7-carboxamide] | +++ (+++ ≥6)
CCN(CC)CCCNC(=O)c1ccc2c(c1)sc1nc(-c3cccc(CN)c3)cn12 [compound 299, 2-(3-(aminomethyl)phenyl)-N-(3-(diethylamino)propyl) benzo[d]imidazo[2,1-b] thiazole-7-carboxamide] | ++ (++ ≥5 and <6)
CCN(CC)CCCNC(=O)c1ccc2c(c1)sc1nc(-c3ccc(CNC4CC4)cc3)cn12 [compound 300, 2-(4-((cyclopropylamino)methyl)phenyl)-N-(3-(diethylamino)propyl)benzo [d]imidazo[2,1-b]thiazole-7-carboxamide] | +++ (+++ ≥6)
CNC(=O)c1ccc(-c2cn3c(n2)sc2cc(C(=O)N[C@@H]4CCCN(C)C4)ccc23)cc1 [compound 301, (R)-2-(4-(methylcarbamoyl)phenyl)-N-(1-methylpiperidin-3-yl)benzo[d]imidazo[2,1-b]thiazole-7-carboxamide] | + (+ >3 and <5)
CNC(=O)c1ccc(-c2cn3c(n2)sc2cc(C(=O)NCC[C@@H]4CCCN4C)ccc23)cc1 [compound 303, (S)-2-(4-(methylcarbamoyl)phenyl)-N-(2-(1-methylpyrrolidin-2-yl)ethyl)benzo[d]imidazo [2,1-b]thiazole-7-carboxamide] | + (+ >3 and <5)
O=C(NCCCN1CCCCC1)c1ccc2c(c1)sc1nc(-c3ccncc3)cn12 [compound 306, N-(3-(piperidin-1-yl)propyl)-2-(pyridin-4-yl)benzo[d]imidazo[2,1-b]thiazole-7-carboxamide] | ++ (++ ≥5 and <6)
CCN(CC)CCCNC(=O)c1ccc2c(c1)sc1nc(-c3ccc(N4CCOCC4)cc3)cn12 [compound 307, N-(3-(diethylamino)propyl)-2-(4-morpholinophenyl)benzo[d] imidazo[2,1-b]thiazole-7-carboxamide] | ++ (++ ≥5 and <6)
CCN(CC)CCCNC(=O)c1ccc2c(c1)sc1nc(-c3cccc(C4COC4)c3)cn12 [compound 308, N-(3-(diethylamino)propyl)-2-(3-(oxetan-3-yl)phenyl)benzo[d]imidazo [2,1-b]thiazole-7-carboxamide] | + (+ >3 and <5)
CNC(=O)c1ccc(-c2cn3c(n2)sc2cc(C(=O)NCCCN4CCC(F)CC4)ccc23)cc1 [compound 309, N-(3-(4-fluoropiperidin-1-yl)propyl)-2-(4-(methylcarbamoyl)phenyl) benzo[d]imidazo[2,1-b]thiazole-7-carboxamide] | ++ (++ ≥5 and <6)
CNC(=O)c1ccc(-c2cn3c(n2)sc2cc(C(=O)NCCCN4CCCC4)ccc23)cc1 [compound 310, 2-(4-(methylcarbamoyl)phenyl)-N-(3-(pyrrolidin-1-yl)propyl)benzo[d]imidazo [2,1-b]thiazole-7-carboxamide] | + (+ >3 and <5)
CNC(=O)c1ccc(-c2cn3c(n2)sc2cc(NC(=O)CCCN4CCCCC4)ccc23)cc1 [compound 312, N-methyl-4-(7-(4-(piperidin-1-yl)butanamido)benzo[d]imidazo[2,1-b]thiazol-2-yl)benzamide] | ++ (++ ≥5 and <6)
CCN(CC)CCCNC(=O)c1ccc2c(c1)sc1nc(-c3ccc(C4CCOCC4)cc3)cn12 [compound 314, N-(3-(diethylamino)propyl)-2-(4-(tetrahydro-2H-pyran-4-yl)phenyl)benzo[d]imidazo [2,1-b]thiazole-7-carboxamide] | + (+ >3 and <5)
O=C(NCCCN1CCCCC1)c1ccc2c(c1)sc1nc(-c3ccc(C4COC4)cc3)cn12 [compound 315, 2-(4-(oxetan-3-yl)phenyl)-N-(3-(piperidin-1-yl)propyl)benzo[d]imidazo [2,1-b]thiazole-7-carboxamide] | ++ (++ ≥5 and <6)
CNC(=O)c1ccc(-c2cn3c(n2)sc2cc(C(=O)NCCCN4CCCCC4)cnc23)cc1 [compound 317, 2-(4-(methylcarbamoyl)phenyl)-N-(3-(piperidin-1-yl)propyl)imidazo[2′,1′:2,3] thiazolo[4,5-b]pyridine-7-carboxamide] | + (+ >3 and <5)
CCN(CC)CCCNC(=O)c1ccc2c(c1)sc1nc(-c3ccc(C4(N)CC4)cc3)cn12 [compound 318, 2-(4-(1-aminocyclopropyl)phenyl)-N-(3-(diethylamino)propyl)benzo [d]imidazo[2,1-b]thiazole-7-carboxamide] | ++ (++ ≥5 and <6)
CNC(=O)c1ccc(-c2nc3sc4cc(C(=O)NCCCN5CCCCC5)ccc4n3n2)cc1 [compound 319, 2-(4-(methylcarbamoyl)phenyl)-N-(3-(piperidin-1-yl)propyl)benzo[4,5]thiazolo [3,2-b][1,2,4]triazole-6-carboxamide] | ++ (++ ≥5 and <6)
CNC(=O)c1ccc(-c2cn3c(n2)sc2cc(C(=O)NCCCN4CCC(F)CC4)ccc23)c(F)c1 [compound 320, 2-(2-fluoro-4-(methylcarbamoyl)phenyl)-N-(3-(4-fluoropiperidin-1-yl)propyl)benzo[d]imidazo [2,1-b]thiazole-7-carboxamide] | +++ (+++ ≥6)
CNC(=O)c1ccc(-c2cn3c(n2)sc2cc(C(=O)NCCCN4CCCC4)ccc23)c(F)c1 [compound 321, 2-(2-fluoro-4-(methylcarbamoyl)phenyl)-N-(3-(pyrrolidin-1-yl)propyl)benzo[d]imidazo [2,1-b]thiazole-7-carboxamide] | ++ (++ ≥5 and <6)
C#CCCC1(CCNC(=O)c2ccc(-c3cn4c(n3)sc3cc(C(=O)NCCCN(CC)CC)ccc34)cc2)N=N1 [compound 322, 2-(4-((2-(3-(but-3-yn-1-yl)-3H-diazirin-3-yl)ethyl)carbamoyl)phenyl)-N-(3-(diethylamino)propyl) benzo[d]imidazo[2,1-b] thiazole-7-carboxamide] | + (+ >3 and <5)
C#CCCC1(CCN(CC)CCCNC(=O)c2ccc3c(c2)sc2nc(-c4ccc(C(=O)NC)cc4)cn23)N=N1 [compound 323, N-(3-((2-(3-(but-3-yn-1-yl)-3H-diazirin-3-yl)ethyl)(ethyl)amino)propyl)-2-(4-(methylcarbamoyl)phenyl) benzo[d]imidazo[2,1-b]thiazole-7-carboxamide] | +++ (+++ ≥6)
C#CCCC1(CCN2CC[C@H](CNC(=O)c3ccc4c(c3)sc3nc(-c5ccc(C)cc5)cn34)C2)N=N1 [compound 324, (R)-N-((1-(2-(3-(but-3-yn-1-yl)-3H-diazirin-3-yl)ethyl)pyrrolidin-3-yl)methyl)-2-(p-tolyl)benzo[d]imidazo[2,1-b]thiazole-7-carboxamide] | ++ (++ ≥5 and <6)
C#CCCC1(CCN2CC[C@@H](CNC(=O)c3ccc4c(c3)sc3nc(-c5ccc(C)cc5)cn34)C2)N=N1 [compound 325, (S)-N-((1-(2-(3-(but-3-yn-1-yl)-3H-diazirin-3-yl)ethyl)pyrrolidin-3-yl)methyl)-2-(p-tolyl)benzo[d]imidazo[2,1-b]thiazole-7-carboxamide] | ++ (++ ≥5 and <6)
C#CCCC1(CCOc2ccccc2-c2cn3c(n2)sc2cc(C(=O)NCCCN4CCCCC4)ccc23)N=N1 [compound 326, 2-(2-(2-(3-(but-3-yn-1-yl)-3H-diazirin-3-yl)ethoxy)phenyl)-N-(3-(piperidin-1-yl)propyl)benzo[d]imidazo [2,1-b]thiazole-7-carboxamide] | ++ (++ ≥5 and <6)
C#CCCC1(CCOc2cccc(-c3cn4c(n3)sc3cc(C(=O)NCCCN(CC)CC)ccc34)c2)N=N1 [compound 327, 2-(3-(2-(3-(but-3-yn-1-yl)-3H-diazirin-3-yl)ethoxy)phenyl)-N-(3-(diethylamino)propyl)benzo [d]imidazo[2,1-b]thiazole-7-carboxamide] | + (+ >3 and <5)
CCN(CC)CCCNC(=O)c1ccc2c(c1)sc1nc(-c3ccc(C(=O)NC)cc3)nn12 [compound 328, N-(3-(diethylamino)propyl)-2-(4-(methylcarbamoyl)phenyl) benzo[4,5]thiazolo[3,2-b][1,2,4]triazole-6-carboxamide] | ++ (++ ≥5 and <6)
CNC(=O)c1ccc(-c2cn3c(n2)sc2cc(C(=O)N(C)CCCN4CCCCC4)ccc23)cc1 [compound 329, N-methyl-2-(4-(methylcarbamoyl)phenyl)-N-(3-(piperidin-1-yl)propyl)benzo[d]imidazo [2,1-b]thiazole-7-carboxamide] | + (+ >3 and <5)
CCN(CC)CCCNC(=O)c1ccc2c(c1)sc1nc(-c3ccncn3)cn12 [compound 330, N-(3-(diethylamino)propyl)-2-(pyrimidin-4-yl)benzo[d]imidazo[2,1-b]thiazole-7-carboxamide] | + (+ >3 and <5)
CCN(CC)CCCNC(=O)c1ccc2c(c1)sc1nc(-c3ccc(CNC4CC4)cc3F)cn12 [compound 331, 2-(4-((cyclopropylamino)methyl)-2-fluorophenyl)-N-(3-(diethylamino)propyl)benzo [d]imidazo[2,1-b]thiazole-7-carboxamide] | +++ (+++ ≥6)
CCN(CC)CCCN(C)C(=O)c1ccc2c(c1)sc1nc(-c3ccc(C(=O)NC)cc3F)cn12 [compound 333, N-(3-(diethylamino)propyl)-2-(2-fluoro-4-(methylcarbamoyl)phenyl)-N-methylbenzo[d]imidazo[2,1-b]thiazole-7-carboxamide] | + (+ >3 and <5)
CCN(CC)CCCNC(=O)c1ccc2c(c1)sc1nc(-c3cc(F)c(CNC4CC4)cc3F)cn12 [compound 334, 2-(4-((cyclopropylamino)methyl)-2,5-difluorophenyl)-N-(3-(diethylamino)propyl)benzo [d]imidazo[2,1-b]thiazole-7-carboxamide] | ++ (++ ≥5 and <6)
